Values quoted from earlier work in publication PMC9851200, “Multiparameter phenotypic screening for endogenous TFEB and TFE3 translocation identifies novel chemical series modulating lysosome function” (Autophagy, 2022).

Tests used:
Parameters in all cases: method as in original PKIS2 published data
[1] = target: kinases (KINOMEscan panel) (Homo sapiens, UniProt P21802); settings: kinase FGFR2; Published KINOMEscan; ref original PKIS2 published data; cited from earlier work
[2] = target: T1, kinases (KINOMEscan panel) (Homo sapiens, UniProt P54760); settings: EPHB4; Published KINOMEscan; ref original PKIS2 published data; cited from earlier work
T1 sequence (P54760 16-987): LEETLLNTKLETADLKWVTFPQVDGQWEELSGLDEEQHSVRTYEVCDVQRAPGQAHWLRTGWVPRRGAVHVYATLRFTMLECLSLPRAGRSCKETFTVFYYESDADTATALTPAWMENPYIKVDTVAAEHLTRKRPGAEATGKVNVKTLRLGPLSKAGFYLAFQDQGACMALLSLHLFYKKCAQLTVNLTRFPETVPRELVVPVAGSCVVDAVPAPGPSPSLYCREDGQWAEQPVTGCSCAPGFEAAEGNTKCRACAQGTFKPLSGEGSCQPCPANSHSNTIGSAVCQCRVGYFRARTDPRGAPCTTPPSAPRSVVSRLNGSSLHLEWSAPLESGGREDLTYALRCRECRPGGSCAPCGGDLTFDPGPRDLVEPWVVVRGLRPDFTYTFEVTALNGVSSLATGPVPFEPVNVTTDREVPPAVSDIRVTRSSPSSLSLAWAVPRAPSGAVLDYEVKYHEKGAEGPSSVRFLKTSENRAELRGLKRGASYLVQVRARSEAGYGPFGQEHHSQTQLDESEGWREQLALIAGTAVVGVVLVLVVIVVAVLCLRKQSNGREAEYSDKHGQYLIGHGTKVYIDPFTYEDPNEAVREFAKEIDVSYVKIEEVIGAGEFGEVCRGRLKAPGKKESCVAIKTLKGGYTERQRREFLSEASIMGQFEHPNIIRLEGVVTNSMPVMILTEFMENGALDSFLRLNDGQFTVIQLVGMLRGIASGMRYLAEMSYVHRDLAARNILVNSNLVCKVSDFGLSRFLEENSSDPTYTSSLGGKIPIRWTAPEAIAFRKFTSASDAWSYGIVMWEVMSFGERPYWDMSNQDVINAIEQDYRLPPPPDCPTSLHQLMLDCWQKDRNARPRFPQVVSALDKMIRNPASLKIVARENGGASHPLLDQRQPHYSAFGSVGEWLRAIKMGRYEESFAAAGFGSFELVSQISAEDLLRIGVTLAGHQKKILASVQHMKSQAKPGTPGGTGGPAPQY

[3] = target: T2, kinases (KINOMEscan panel) (Homo sapiens, UniProt Q96L34); settings: kinase MARK4; Published KINOMEscan; ref original PKIS2 published data; cited from earlier work
T2 sequence (Q96L34 1-752): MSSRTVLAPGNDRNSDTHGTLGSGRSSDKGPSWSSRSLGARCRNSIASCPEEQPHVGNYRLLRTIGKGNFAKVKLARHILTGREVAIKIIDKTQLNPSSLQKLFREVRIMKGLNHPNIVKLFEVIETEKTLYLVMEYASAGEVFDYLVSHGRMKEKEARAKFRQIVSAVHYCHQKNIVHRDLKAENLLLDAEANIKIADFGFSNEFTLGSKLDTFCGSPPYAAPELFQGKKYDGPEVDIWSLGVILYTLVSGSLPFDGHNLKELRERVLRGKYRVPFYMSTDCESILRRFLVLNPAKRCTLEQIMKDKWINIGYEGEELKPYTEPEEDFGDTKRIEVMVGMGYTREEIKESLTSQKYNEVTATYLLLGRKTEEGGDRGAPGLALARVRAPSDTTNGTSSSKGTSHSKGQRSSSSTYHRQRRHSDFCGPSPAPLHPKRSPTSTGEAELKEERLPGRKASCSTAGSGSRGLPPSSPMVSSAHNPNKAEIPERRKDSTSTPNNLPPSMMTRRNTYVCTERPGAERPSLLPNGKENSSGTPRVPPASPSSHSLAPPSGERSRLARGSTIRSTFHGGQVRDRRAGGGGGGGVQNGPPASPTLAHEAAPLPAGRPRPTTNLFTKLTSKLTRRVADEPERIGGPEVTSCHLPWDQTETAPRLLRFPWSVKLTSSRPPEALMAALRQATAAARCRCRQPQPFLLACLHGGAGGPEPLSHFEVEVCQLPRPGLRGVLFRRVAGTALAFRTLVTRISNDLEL

[4] = target: T3, kinases (KINOMEscan panel) (Homo sapiens, UniProt Q99640); settings: kinase PKMYT1; Published KINOMEscan; ref original PKIS2 published data; cited from earlier work
T3 sequence (Q99640 1-499): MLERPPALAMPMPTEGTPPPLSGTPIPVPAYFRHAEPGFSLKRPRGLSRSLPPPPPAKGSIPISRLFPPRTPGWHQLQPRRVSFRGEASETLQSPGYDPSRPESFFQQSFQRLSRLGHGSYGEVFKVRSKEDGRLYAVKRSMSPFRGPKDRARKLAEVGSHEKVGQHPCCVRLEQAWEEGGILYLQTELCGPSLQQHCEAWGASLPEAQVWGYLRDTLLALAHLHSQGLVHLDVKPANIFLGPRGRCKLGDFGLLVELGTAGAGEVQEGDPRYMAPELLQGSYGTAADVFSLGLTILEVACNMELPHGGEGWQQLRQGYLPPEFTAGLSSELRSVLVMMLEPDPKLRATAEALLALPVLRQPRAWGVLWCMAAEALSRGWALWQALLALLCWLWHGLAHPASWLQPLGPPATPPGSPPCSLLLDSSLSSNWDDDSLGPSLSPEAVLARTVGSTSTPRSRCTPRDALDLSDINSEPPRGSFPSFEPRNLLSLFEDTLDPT

Sequence of kinases (KINOMEscan panel) (Homo sapiens, UniProt P21802) (P21802 22-821): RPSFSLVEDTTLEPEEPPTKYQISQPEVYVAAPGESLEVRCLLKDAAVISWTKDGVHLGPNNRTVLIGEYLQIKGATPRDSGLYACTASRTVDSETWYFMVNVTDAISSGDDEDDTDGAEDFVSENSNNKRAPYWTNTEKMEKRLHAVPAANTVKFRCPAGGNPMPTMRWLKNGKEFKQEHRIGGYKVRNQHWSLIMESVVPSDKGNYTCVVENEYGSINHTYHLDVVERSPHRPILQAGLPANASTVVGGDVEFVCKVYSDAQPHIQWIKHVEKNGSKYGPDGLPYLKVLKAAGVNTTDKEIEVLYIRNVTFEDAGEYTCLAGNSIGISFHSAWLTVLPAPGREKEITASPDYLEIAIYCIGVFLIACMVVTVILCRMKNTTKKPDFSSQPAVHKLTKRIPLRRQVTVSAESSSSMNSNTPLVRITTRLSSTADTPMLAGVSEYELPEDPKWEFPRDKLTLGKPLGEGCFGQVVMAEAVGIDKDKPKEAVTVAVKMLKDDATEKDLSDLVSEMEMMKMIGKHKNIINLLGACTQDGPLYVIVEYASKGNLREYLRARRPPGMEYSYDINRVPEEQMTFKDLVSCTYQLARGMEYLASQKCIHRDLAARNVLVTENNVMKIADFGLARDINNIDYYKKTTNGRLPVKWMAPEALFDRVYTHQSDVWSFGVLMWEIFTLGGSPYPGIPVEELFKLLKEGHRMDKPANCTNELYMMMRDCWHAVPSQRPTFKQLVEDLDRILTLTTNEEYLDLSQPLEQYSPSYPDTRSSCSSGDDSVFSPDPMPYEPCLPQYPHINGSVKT

## Cc1cccc(-c2nc(Nc3ccncc3)c3ccccc3n2)n1 [NK215]
[1]
  KINOMEscan FGFR2: 7
[2]
  KINOMEscan EPHB4: 26
[3]
  KINOMEscan MARK4: 25
[4]
  KINOMEscan PKMYT1: 0
